Changes are numbered by the printed parent chain. Names and notes keep the numbering of the source. Like-named read-outs stand apart in the source and are kept apart here. Blank lines part the entries; values can stand above or below the molecule they belong to. *1 amine or outer side, *2 acyl side, *3 side chain or, on linkers, in order; H or OH if unused. Where a SMILES comes first, the peptide text is derived from it. Bridges are numbered along the chain shown (N, C = ends). Where no end group is shown, it is not given here. [ ]: non-standard residue; d: D form. The star is where a group is joined. 5FAM = O=C1OC2(c3ccc(O)cc3Oc3cc(O)ccc32)c2ccc(C(=O)*)cc21; Biphenyl(4,4'-CH2)2 = c1cc(-c2ccc(C[*:2])cc2)ccc1C[*:1]; Pro(trans-4-F) = O=C(O)[C@@H]1C[C@@H](F)CN1; Phe(4-Br) = N[C@@H](Cc1ccc(Br)cc1)C(=O)O; Phe(4-Cl) = N[C@@H](Cc1ccc(Cl)cc1)C(=O)O; Phe(4-I) = N[C@@H](Cc1ccc(I)cc1)C(=O)O; Nle = CCCC[C@H](N)C(=O)O; Ahx = NCCCCCC(=O)O
Experiments:
[1] = target: T1, Aurora-A122-403-C290A/C393A (Homo sapiens, UniProt O14965, C290A/C393A); test: Variable-temperature fluorescence anisotropy (VT-FA) Van't Hoff analysis; assay type: binding
T1 construct: Human Aurora-A kinase domain 122-403 wild-type or C290A/ C393A mutant; His tag (pET30TEV vector) (N, cleaved yes); made in house; host or cells: E. coli RIL, co-expressed with lambda phosphatase (Aurora-A); tracer by solid phase synthesis
T1 sequence (O14965 122-403 C290A/C393A): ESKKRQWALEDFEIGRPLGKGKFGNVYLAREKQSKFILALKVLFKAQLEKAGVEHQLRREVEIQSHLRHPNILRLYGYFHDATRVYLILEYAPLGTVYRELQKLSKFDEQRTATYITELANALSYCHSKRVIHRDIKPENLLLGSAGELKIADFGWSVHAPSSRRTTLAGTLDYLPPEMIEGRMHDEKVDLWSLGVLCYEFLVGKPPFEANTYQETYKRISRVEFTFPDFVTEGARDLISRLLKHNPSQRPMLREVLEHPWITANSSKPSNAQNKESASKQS
Procedure: Variable-temperature fluorescence anisotropy (VT-FA) Van't Hoff analysis. Variable temperature-fluorescent anisotropy assays were performed in 384-well plates (Greiner Bio-one) with Aurora-A 122-403-290A/C393A protein dialyzed into different assay buffers before use. In this experiment, we prepared five […]
Buffer 1 – 25 mM HEPES, 150 mM NaCl, 5 mM MgCl2, pH= 7.5, Buffer 2 – 25 mM Tris, 150 mM NaCl, 5 mM MgCl2, pH= 7.5, Buffer 3 – 25 mM HEPES, 5 mM MgCl2, pH= 7.5, Buffer 4– 25 mM HEPES, 150 mM NaCl, 5 mM MgCl2, pH= 6.0, Buffer 5– 25 mM HEPES, 150 mM NaCl, 5 mM MgCl2, pH= 8.0, The protein concentration in the first well started at 237 μM in the corresponding buffer, and was diluted over 16 points in a 1/2 dilution regime. The concentration of the labeled peptide was fixed at 50 nM per well. After incubation of the plate at room temperature for 1 h, the plates were read at increasing intervals of 2.5°C, following a minimum period of 5 min equilibration at each temperature. The data was processed as previously described and the ln Ka at each temperature plotted against 1/T (K). The ΔG°, ΔH° and -T*ΔS° were calculated according to Van’t Hoff’s equation (6): […]
r = r଴ + A x e భ Eq. (SI - 10)
τ = tଵ ln(2) Eq. (SI - 11) […]
Western blots were performed using an anti-Phospho-Thr288

[2] = target: T1, Aurora-A122-403-C290A/C393A; test: FA direct binding assay (Aurora-A titrated into FAM-Ahx-labelled peptide); design: ΔG: unit not given here
Procedure: Fluorescence anisotropy (FA) assays – General information.
All assays were performed using 384-well plates(Greiner Bio-one, UK). […]
produced as described previously.11 All samples were prepared in 25 mM Tris,150 mM NaCl, 5 mM MgCl2, […]
(PerkinElmer; Waltham, MA, USA).The parameters were set as follows: Excitation wavelength = 480 nm […]
Measured data were processed and analysed as previously described.12 Specifically, the perpendicular intensity (P) and parallel intensity (S) were subtracted by the control values and used for calculations of intensity and anisotropy using the following Equations 1, 2, 3, 4, and 5:
I= (2PG) + S Eq. (SI − 5)
r = (S − PG) Eq. (SI − 6)
L = r − r௠௜௡ Eq. (SI − 7)
y = (k + x + [FL]) − ඥ(k + x + [FL]2 − 4 ∗ x ∗ [FL]) Eq. (SI − 8)
y = r + r௠௜௡ − r௠௔௫ Eq. (SI − 9)
Where I = total intensity; P = perpendicular intensity; S = parallel intensity; G = instrument factor; r = anisotropy; Lb = ligand bound fraction; λ = change in intensity between bound and unbound states which […]
FA direct binding assays. […]
starting from 700 μM, diluted over 24 points in a 1/2 regime using the FAM-Ahx-labeled peptides at a final fixed concentration of 50 nM per well.

[3] = target: T2, Aurora-A 122-403 (Homo sapiens, UniProt O14965); test: fluorescence anisotropy competition
T2 chain: T1 sequence (O14965 122-403 C290A/C393A) with A169C, A272C

[4] = as E43, Buffer 1 – 25 mM HEPES, 150 mM NaCl, 5 mM MgCl2, pH= 7.5
[5] = as E43, Buffer 2 – 25 mM Tris, 150 mM NaCl, 5 mM MgCl2, pH= 7.5
[6] = as E43, Buffer 3 – 25 mM HEPES, 5 mM MgCl2, pH= 7.5
[7] = as E43, Buffer 4 – 25 mM HEPES, 150 mM NaCl, 5 mM MgCl2, pH= 6.0
[8] = as E43, Buffer 5 – 25 mM HEPES, 150 mM NaCl, 5 mM MgCl2, pH= 8.0

Molecule: CC(C)C[C@H](NC(=O)[C@@H](NC(=O)[C@H](CCC(=O)O)NC(=O)[C@H](C)NC(=O)[C@@H]1C[C@@H](F)CN1C(=O)[C@H](CC(=O)O)NC(=O)[C@@H]1CSCc2ccc(cc2)-c2ccc(cc2)CSC[C@H](NC(=O)[C@H](CCC(=O)O)NC(=O)[C@H](CC(C)C)NC(=O)CCCCCNC(=O)c2ccc3c(c2)C(=O)OC32c3ccc(O)cc3Oc3cc(O)ccc32)C(=O)N[C@@H](CCCCN)C(=O)N[C@@H](CCC(=O)O)C(=O)N[C@@H](CCC(=O)O)C(=O)N[C@@H](CO)C(=O)N[C@@H](Cc2ccc(I)cc2)C(=O)N1)C(C)C)C(N)=O [FAM-Ahx-TACC3 518-532-L/R-Bph-IF/fP] ({5FAM-Ahx}-LECKEES[Phe(4-I)]CD[Pro(trans-4-F)]AEVL-NH2; linker 3-9 via Biphenyl(4,4'-CH2)2)
- ΔΔGConstrained-WT ([1]; VT-FA Van't Hoff, 50 nM FAM-Ahx tracers, 25-35 °C, constrained minus linear FAM-Ahx-TACC3 518-532, Buffer 1 – 25 mM HEPES, 150 mM NaCl, 5 mM MgCl2, pH= 7.5, triplicate): -4.50 ± 3.6 kJ mol -1
- ΔTΔSConstrained-WT [1, 4]: -17.91 ± 2.4 kJ mol -1
- ΔΔHConstrained-WT [1, 4]: 14.18 ± 2.5 kJ mol -1
- ΔTΔSConstrained-WT [1, 5]: -17.85 ± 1.6 kJ mol -1
- ΔΔGConstrained-WT [1, 5]: -3.17 ± 2.0 kJ mol -1
- ΔΔHConstrained-WT [1, 5]: 14.67 ± 0.4 kJ mol -1
- ΔTΔSConstrained-WT [1, 6]: -22.94 ± 2.9 kJ mol -1
- ΔΔGConstrained-WT [1, 6]: -6.82 ± 5.9 kJ mol -1
- ΔΔHConstrained-WT [1, 6]: 16.12 ± 3.0 kJ mol -1
- ΔTΔSConstrained-WT [1, 7]: -11.33 ± 2.0 kJ mol -1
- ΔΔGConstrained-WT [1, 7]: -4.06 ± 4.1 kJ mol -1
- ΔΔHConstrained-WT [1, 7]: 7.27 ± 2.1 kJ mol -1
- ΔTΔSConstrained-WT [1, 8]: -13.22 ± 0.9 kJ mol -1
- ΔΔGConstrained-WT [1, 8]: -3.02 ± 1.8 kJ mol -1
- ΔΔHConstrained-WT [1, 8]: 10.19 ± 0.9 kJ mol -1
- Kd ([2]; Table S6, direct FA titration, 50 nM fluorescein-labelled peptide, Tris buffer pH 7.5, mean ± SD, n = 6, read-out: Kd): 1.42 ± 0.24 µM
- ΔG ([2]; Table S6, from direct FA titration, 50 nM fluorescein-labelled peptide, mean ± SD, n = 6): -33.4 ± 0.5

Molecule: EESFRD[cis‑Pro(4-F)]AEVLGTGA [TACC3 cis-(4-F)Pro528 522-536]
- IC50 [3]: > 200 µM

Molecule: EESFRD[trans‑Pro(4-F)]AEVLGTGA [TACC3 trans-(4-F)Pro528 522-536]
- IC50 [3]: 60 µM

Molecule: EESFRDPAEV[Nle]GTGA [TACC3 L532nL 522-536]
- IC50 [3]: 213 µM

Second part, the molecule after the results:

- Kd ([2]; direct FA titration of Aurora-A122-403-C290A/C393A into 50 nM FAM-Ahx-labelled peptide, 25 mM Tris, 150 mM NaCl, 5 mM MgCl2, pH 7.5, 25 °C, mean ± SD, n = 3, read-out: Kd): 5.2 ± 0.5 µM
Molecule: CC(C)C[C@H](NC(=O)[C@H](Cc1ccc(O)cc1)NC(=O)[C@H](CC(=O)O)NC(=O)[C@@H](NC(=O)[C@H](CCC(=O)O)NC(=O)[C@H](C)NC(=O)CNC(=O)[C@@H](NC(=O)CNC(=O)[C@H](CC(C)C)NC(=O)[C@@H](NC(=O)[C@H](CCC(=O)O)NC(=O)[C@H](C)NC(=O)[C@@H]1CCCN1C(=O)[C@H](CC(=O)O)NC(=O)[C@H](CCCNC(=N)N)NC(=O)[C@H](Cc1ccccc1)NC(=O)[C@H](CO)NC(=O)[C@H](CCC(=O)O)NC(=O)[C@H](CCC(=O)O)NC(=O)CCCCCNC(=O)c1ccc2c(c1)C(=O)OC21c2ccc(O)cc2Oc2cc(O)ccc21)C(C)C)[C@@H](C)O)C(C)C)C(=O)N[C@@H](CCC(=O)O)C(=O)N[C@@H](CCC(N)=O)C(=O)N[C@@H](Cc1ccccc1)C(=O)NCC(=O)N[C@H](C(=O)N[C@@H](CO)C(=O)N[C@@H](CO)C(=O)N[C@@H](Cc1ccccc1)C(=O)N[C@@H](CCCCN)C(=O)N[C@@H](CCC(=O)O)C(=O)N[C@@H](CO)C(N)=O)[C@@H](C)O [FAM-Ahx-TACC3 522-552] ({5FAM-Ahx}-EESFRDPAEVLGTGAEVDYLEQFGTSSFKES-NH2)

- IC50 [3]: 46 µM
Molecule: EES[Phe(4-Cl)]RDPAEVLGTGA [TACC3 (4-Cl)Phe525 522-536]

- IC50 [3]: 34 µM
Molecule: EES[Phe(4-Br)]RDPAEVLGTGA [TACC3 (4-Br)Phe525 522-536]

- IC50 [3]: > 300 µM
Molecule: EESFRDPAE[Nle]LGTGA [TACC3 V531nL 522-536]

- IC50 [3]: ~30 µM
Molecule: LELKEESFRDPAEVL (not fully specified; L520C/R526C biphenyl constraint; Aurora-A C290A+C393A) [TACC3 L/R-Bph 518-532]

From PMC11604048, “Constrained TACC3 peptidomimetics for a non-canonical protein–protein interface elucidate allosteric communication in Aurora-A kinase” (Chemical Science, 2024)
